Legend:
Assay type in all cases: in vivo
kochia (Bassia scoparia) [1] = assay: Test A postemergence application, visual injury rating 0-100; conditions: Postemergence, 1000 g ai/ha, 0 to 100 scale, 10 days
Summary of the method: (§1)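 Compound in a non-phytotoxic, surfactant-containing solvent is applied either as a directed soil spray before seedlings emerge or onto emerged plants 2-10 cm tall; pots hold a loam-sand blend. Plants grow 10 days under greenhouse conditions and are rated by eye against untreated controls (0 no effect, 100 complete control).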

[2] = system: ragweed (common ragweed, Ambrosia artemisiifolia); assay: as above; conditions: Postemergence, 1000 g ai/ha, 0 to 100 scale, 10 days
Summary of the method: as §1

[3] = system: blackgrass (Alopecurus myosuroides); assay: as above; conditions: Postemergence, 1000 g ai/ha, 0 to 100 scale, 10 days
Summary of the method: as §1

[4] = system: ryegrass, Italian (italian ryegrass, Lolium multiflorum); assay: as above; conditions: Postemergence, 1000 g ai/ha, 0 to 100 scale, 10 days
Summary of the method: as §1

[5] = system: foxtail, giant (giant foxtail, Setaria faberi); assay: as above; conditions: 1000 g ai/ha, 0 to 100 scale, 10 days
Summary of the method: as §1

[6] = system: horseweed (Erigeron canadensis); assay: as above; conditions: Postemergence, 1000 g ai/ha, 0 to 100 scale, 10 days
Summary of the method: as §1

[7] = system: goosegrass (Eleusine indica); assay: as above; conditions: 1000 g ai/ha, 0 to 100 scale, 10 days
Summary of the method: as §1

[8] = system: palmer (palmer amaranth, palmer pigweed, Amaranthus palmeri); assay: as above; conditions: Postemergence, 1000 g ai/ha, 0 to 100 scale, 10 days
Summary of the method: as §1

[9] = system: sedge, umbrella (small-flower umbrella sedge, Cyperus difformis); assay: Test B flooded paddy test, visual plant response rating 0-100; conditions: 250 g ai/ha, Flood, applied to paddy water, evaluated after 13 days
Summary of the method: (§2)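 Visual evaluation after 13 days. Water-applied treatment, 3 cm flood depth held constant, plants at 2-leaf stage at treatment.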

[10] = system: ducksalad (Heteranthera limosa); assay: as above; conditions: 250 g ai/ha, Flood, applied to paddy water, evaluated after 13 days
Summary of the method: as §2

rice (Oryza sativa) = assay: as above; conditions: 250 g ai/ha, Flood, applied to paddy water, evaluated after 13 days
Summary of the method: as §2

[11] = system: barnyardgrass (Echinochloa crusgalli); assay: as above; conditions: 250 g ai/ha, Flood, applied to paddy water, evaluated after 13 days
Summary of the method: as §2

kochia (Bassia scoparia) [12] = assay: Test A preemergence soil spray, visual injury rating 0-100; conditions: 1000 g ai/ha, 10 days, 0 = no effect, 100 = complete control
Summary of the method: as §1

[13] = system: ragweed (common ragweed, Ambrosia artemisiifolia); assay: as above; conditions: 1000 g ai/ha, 10 days, 0 = no effect, 100 = complete control
Summary of the method: as §1

[14] = system: ryegrass, Italian (italian ryegrass, Lolium multiflorum); assay: as above; conditions: 1000 g ai/ha, 10 days, 0 = no effect, 100 = complete control
Summary of the method: as §1

[15] = system: foxtail, giant (giant foxtail, Setaria faberi); assay: as above; conditions: 1000 g ai/ha, 10 days, 0 = no effect, 100 = complete control
Summary of the method: as §1

[16] = system: goosegrass (Eleusine indica); assay: as above; conditions: 1000 g ai/ha, 10 days, 0 = no effect, 100 = complete control
Summary of the method: as §1

[17] = system: palmer (palmer amaranth, palmer pigweed, Amaranthus palmeri); assay: as above; conditions: 1000 g ai/ha, 10 days, 0 = no effect, 100 = complete control
Summary of the method: as §1

[18] = system: galium (catchweed bedstraw, Galium aparine); assay: Test A postemergence application, visual injury rating 0-100; conditions: Postemergence, 1000 g ai/ha, 0 to 100 scale, 10 days
Summary of the method: as §1

[19] = system: blackgrass (Alopecurus myosuroides); assay: Test A preemergence soil spray, visual injury rating 0-100; conditions: 1000 g ai/ha, 10 days, 0 = no effect, 100 = complete control
Summary of the method: as §1

Row | SMILES | Kochia plant response rating (kochia (Bassia scoparia) [1]) | Ragweed plant response rating [2] | Blackgrass plant response rating [3] | Ryegrass, Italian plant response rating [4] | Foxtail, Giant plant response rating [5] | Horseweed plant response rating [6] | Goosegrass plant response rating [7] | Amaranth, Palmer plant response rating [8] | Plant response rating, Sedge, Umbrella (0 to 100 scale, 0 is no effect and 100 is complete control) [9] | Plant response rating, Ducksalad (0 to 100 scale, 0 is no effect and 100 is complete control) [10] | Plant response rating, Rice (0 to 100 scale, 0 is no effect and 100 is complete control) (rice (Oryza sativa)) | Plant response rating, Barnyardgrass (0 to 100 scale, 0 is no effect and 100 is complete control) [11] | Kochia plant response rating (0 to 100 scale) (kochia (Bassia scoparia) [12]) | Ragweed plant response rating (0 to 100 scale) [13] | Ryegrass, Italian plant response rating (0 to 100 scale) [14] | Foxtail, Giant plant response rating (0 to 100 scale) [15] | Goosegrass plant response rating (0 to 100 scale) [16] | Amaranth, Palmer / Pigweed, Palmer plant response rating (0 to 100 scale) [17] | Galium plant response rating [18] | Blackgrass plant response rating (0 to 100 scale) [19]
1 | COC(=O)[C@@H]1C=C[C@H](NC(=O)C2(C)CN(c3cc(F)cc(F)c3)C(=O)O2)C1 (stereo partly drawn) [Compound 27, Methyl (1S,4R)-4-[[[3-(3,5-difluorophenyl)-5-methyl-2-oxo-5-oxazolidinyl]carbonyl]amino]-2-cyclopentene-1-carboxylate] | 80 | 80 | 90 | 100 | 90 | 80 | 90 | 90 | 50 | 85 | 35 | 90 | 100 | 50 | 100 | 100 | 100 | 100 | – | –
2 | CCOC(=O)C1C=CC(NC(=O)C2(C)CN(c3cc(F)cc(F)c3)C(=O)O2)C1 (centres unmarked) [Compound 28] | 80 | 70 | 100 | 80 | 90 | 80 | 90 | 90 | 65 | 75 | 70 | 85 | 100 | 80 | 100 | 100 | 100 | 100 | 70 | 90
